Measured values: patent US20260294849A1, “METHODS FOR TREATING CORNEAL INJURIES” (National Taiwan University, priority 2023, published 2026)
Entries after “also recorded” stand apart in the source; their conditions may differ. Where a name gives a salt, the structure may show the parent alone.

Key:
Assay type in all cases: in vivo, mice (nT/nG transgenic)
laser-injured cornea = assay: Corneal observation (opacity, edema, ulcer formation, ocular surface) via gross images after laser ablation and intracameral injection; conditions: for Ocular surface of the eye: Day 2 after laser ablation and intracameral injection, BSS group: mild inflammation and irritation; for Edema / Opacity / Ulcer formation: laser-injured cornea after treatment, single intracameral injection 0.5 μl, Day 2; for Edema: BSS group: mild edema; for Opacity: BSS group: slight opacity; for Ulcer formation: BSS group: slight ulcer formation
Description: (§1) nT/nG transgenic mice (Jax #023035; the Jackson Laboratory), having a Cre-reporter allele comprising a cell nuclear-targeted tandem dimerTomato (tdTomato; an orange fluorescent protein) and an enhanced green fluorescent protein (EGFP) (Prigge, Wiley et al., 2013; “Nuclear double-fluorescent reporter for in vivo and ex vivo analyses of biological transitions in mouse nuclei.”), were used in the present study for investigating the cell density and the healing process in corneal endothelium. The mice were characterized in that, prior to Cre recombination, widespread fluorescence expression of tdTomato (localized to the cell nucleus) was observed; whereas following Cre recombination, nuclear-localized green fluorescence was detected. All procedures on mice were approved by and performed in accordance with the Institutional Animal Care and Use Committees of National Taiwan University.
(§2) To eliminate the corneal endothelial cells, the multiphoton femtosecond laser was employed to induce cell ablation due to its ability to precisely control cell ablation in time and space with minimal injury made to adjacent tissues (Rompolas, Deschene et al., 2012; “Live imaging of stem cell and progeny behaviour in physiological hair-follicle regeneration.”). Once the corneal endothelial cells needed to be removed were identified, laser ablation was performed on the selected area (50 μm×50 μm) with a 880 nm laser wavelength and a 500 mW laser power in a single scan, with repeatedly adjusting the laser along the z-axis to achieve optimal results.
(§3) Following laser ablation, the aforementioned drugs were intracamerally injected to the cornea of the mice immediately using a customized needle attached to a 5 μl syringe (Hamilton). To avoid the motion, a cotton swab was used to prop the eyeball during the intracameral injection above on the peripheral region of the cornea. Each eye was slowly applied with a single dose of 0.5 μl different drugs.
The test compound(s) was/were intracamerally administered to the mice following laser ablation of the cornea, and then the corneal opacity was initially evaluated via gross images of the cornea.

[1] = tested on: corneal endothelial cells; assay: Corneal wound healing by multiphoton microscopy (intravital imaging) after laser ablation; conditions: intracameral injection; for Corneal wound healing, Day 1: Day 1 after laser ablation, BSS group could not seal the wound defects; for Corneal wound healing, Day 2: Day 2 after laser ablation, BSS group: compromised integrity until Day 2
Description: as §1
For live image acquisition, mice were anesthetized by intramuscular injection of 50-80 mg/kg Zoletil (Virbac). The corneal surface was anesthetized with 0.4% oxybuprocaine hydrochloride (Sigma) in saline. An eye holder was used to minimize artifacts during intravital imaging, as previously described (Wu, Wang et al., 2019; “Intravital multiphoton microscopic imaging platform for ocular surface imaging.”). Intravital imaging was performed using a laser wavelength of 880 nm for tdTomato excitation and a laser power of approximately 35 mW at the sample plane to optimize the image quality without photobleaching. A water-immersion 20×/NA1.0 objective lens (Olympus) was used to focus the laser light onto the eyes, after the laser light was reflected by the main dichroic mirror (Semrock). The tdTomato signals were spectrally separated using a bandpass filter of 585/40 nm (Semrock). To prevent dryness of the ocular surface during imaging, an eye gel (Vidisic Gel, Dr. Gerhard Mann Chem-Pharm) with a refractive index of 1.338 was used as an immersion medium on the cornea. Image stacks along the z-axis with a step size of 1 μm were acquired, and the dimensions of the images acquired in this study were 512×512 pixels.
as §2, §3
The efficacy of the tested drugs in promoting the corneal wound healing was investigated by a multiphoton microscopy analysis, in which changes in the wound site following drug injection was tracked.

[2] = tested on: corneal endothelial cells; assay: Corneal endothelial cell density after laser ablation (confocal cell counting); conditions: for Corneal endothelial cell density: day 2 after laser ablation, intracameral injection, means±SEM, Control 728.5 ± 55.01, BSS 633 ± 33.7; for Protection of the corneal endothelial cells against injuries: order: Formoterol Sulfate>Formoterol PG>Formoterol BG>Formoterol>THBP>Permethrin>Fenbutrazate>Levonordefrin>Encainide>Bhilawanol A
Description: as §1, §2, §3
The mice were anesthesia and sacrificed on day 2 after laser ablation with the indicated treatments administered (as shown in FIGS. 1-3), and their eyes were enucleated and fixed in 4% paraformaldehyde (PFA) at 4° C. overnight. After dissecting the cornea from the eyeball, the cornea was cut into a four-petal shape, placed on glass slides, mounted with a mounting medium (Vector), and immobilized by using a coverslip. All the fluorescent images were acquired by a SP8 confocal microscope (Leica), with steps set at 1 μm per z-section for a 20× objective. The cell nuclear ware manually segmented by using spot plugin in Imaris (Oxford instruments). For each sample, a circle area with a diameter of 300 μm was selected to count the cell numbers, so as to quantify the cell density in different drug treatments.
All the experimental data were performed by Prism and represented as means±SEM. The statistical significance of difference between the experimental groups was evaluated by Student's t test. P values<0.05 were considered statistically significant.
The protective effect of the present compound(s) on the corneal endothelial cells against injuries was evaluated by counting the cell number and/or the density of the corneal endothelial cells, instead of the keratocytes in corneal stroma or the other cell populations in trabecular meshwork.

Row | Compound | Ocular surface of the eye (laser-injured cornea) | Edema (laser-injured cornea) | Opacity (laser-injured cornea) | Ulcer formation (laser-injured cornea) | Corneal wound healing, Day 1 ([1]; 6 μM) | Corneal endothelial cell density [2] | Protection of the corneal endothelial cells against injuries [2] | Corneal wound healing, Day 2 ([1]; 6 μM) | Corneal wound healing, Day 2 ([1]; 30 μM (238.875 ng/kg))
1 | C[C@H](N)[C@H](O)c1ccc(O)c(O)c1 [Levonordefrin, reference compound] | maintained the ocular surface of the eye moist and transparent | No | No | No | accelerated wound healing and sealed the defects on Day 1 | 710.5 ± 41.7 cell number/the area of a circ | protected the corneal endothelial cells | – | –
2 | COc1ccc(C[C@@H](C)NC[C@H](O)c2ccc(O[C@@H]3O[C@H](C(=O)O)[C@@H](O)[C@H](O)[C@H]3O)c(NC=O)c2)cc1 [Formoterol PG, Formoterol Phenolic Glucuronide] | maintained the ocular surface of the eye moist and transparent | No | No | No | – | 799.5 ± 23.56 cell number/the area of a circ | protected the corneal endothelial cells | promoted wound healing on Day 2 | –
3 | COc1ccc(C[C@@H](C)NC[C@H](O)c2ccc(OS(=O)(=O)O)c(NC=O)c2)cc1 [Formoterol Sulfate] | maintained the ocular surface of the eye moist and transparent | No | No | No | – | 805.25 ± 22.3 cell number/the area of a circ | protected the corneal endothelial cells | promoted wound healing on Day 2 | –
4 | CCC(C(=O)OCCN1CCOC(c2ccccc2)C1C)c1ccccc1 (stereo not drawn) [Fenbutrazate, reference compound] | maintained the ocular surface of the eye moist and transparent | No | slightly hazy spot formation; also recorded: Slight hazy | No | – | 720.8 ± 14.9 cell number/the area of a circ | protected the corneal endothelial cells | promoted wound healing on Day 2 | –
5 | CCCCCC/C=C\CCCCCCCc1cccc(O)c1O [Bhilawanol A] | maintained the ocular surface of the eye moist and transparent | No | No | No | – | 674.3 ± 8 cell number/the area of a circ | protected the corneal endothelial cells | – | promoted wound healing on Day 2
6 | COc1ccc(C(=O)Nc2ccccc2CCC2CCCCN2C)cc1 (stereo not drawn) [Encainide, reference compound] | maintained the ocular surface of the eye moist and transparent | No | No | No | – | 690 ± 8.8 cell number/the area of a circ | protected the corneal endothelial cells | promoted wound healing on Day 2 | –
7 | COc1ccc(CC(C)NCC(OC2O[C@H](C(=O)O)[C@@H](O)[C@H](O)[C@H]2O)c2ccc(O)c(NC=O)c2)cc1 (stereo partly drawn) [Formoterol BG, Formoterol Benzyl Glucuronide] | maintained the ocular surface of the eye moist and transparent | No | No | No | – | 796 ± 24.9 cell number/the area of a circ | protected the corneal endothelial cells | promoted wound healing on Day 2 | –
8 | CC1(C)C(C=C(Cl)Cl)C1C(=O)OCc1cccc(Oc2ccccc2)c1 (stereo not drawn) [Permethrin, reference compound] | maintained the ocular surface of the eye moist and transparent | No | No | No | – | 721.8 ± 12.9 cell number/the area of a circ | protected the corneal endothelial cells | promoted wound healing on Day 2 | –
9 | 2,2,4,4-Tetrahydroxybenzophenone [THBP] | maintained the ocular surface of the eye moist and transparent | No | No | No | accelerated wound healing and sealed the defects on Day 1 | 724 ± 12.8 cell number/the area of a circ | protected the corneal endothelial cells | – | –
